This is an account of results in US20250101041A1, “POSITIVE ALLOSTERIC MODULATORS OF THE MUSCARINIC ACETYLCHOLINE RECEPTOR M4” (Vanderbilt University, priority 2022, published 2025).

The assay deals with T1, human mAChR M4 (Homo sapiens, UniProt P08173).
T1 construct: expressed in transfected cells; host or cells: CHO-K1 (American Type Culture Collection), stably expressing hM4 and Gqi5
T1 sequence (P08173 1-479): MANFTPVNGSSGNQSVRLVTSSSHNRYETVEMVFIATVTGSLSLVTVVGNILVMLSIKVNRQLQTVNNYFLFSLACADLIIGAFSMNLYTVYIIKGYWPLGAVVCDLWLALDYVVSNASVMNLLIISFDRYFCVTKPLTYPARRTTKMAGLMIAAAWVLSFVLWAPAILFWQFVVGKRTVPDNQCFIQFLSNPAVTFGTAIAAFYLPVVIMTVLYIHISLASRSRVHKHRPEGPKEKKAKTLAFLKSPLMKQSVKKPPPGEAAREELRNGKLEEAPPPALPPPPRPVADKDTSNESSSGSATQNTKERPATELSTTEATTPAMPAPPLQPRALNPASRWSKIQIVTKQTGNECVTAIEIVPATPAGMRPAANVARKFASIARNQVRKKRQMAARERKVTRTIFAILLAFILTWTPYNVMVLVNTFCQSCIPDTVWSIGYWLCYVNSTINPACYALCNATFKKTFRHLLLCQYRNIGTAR
Kind of assay: mAChR M4 cell-based functional assay: calcium mobilization (Fluo-4, FDSS), potentiation of EC20 acetylcholine response in hM4-Gqi5 CHO-K1 cells. The conditions noted are these: human M4; for Emax at 30 µM: CHO-K1, % ACh maximum at 30 μM; for EC50: potentiation of EC20 acetylcholine response, calcium mobilization. Summed up:
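Readout is the fluorescence-ratio rise at 1 Hz on FDSS, with PAM activity taken as concentration-dependent enhancement of the EC20 acetylcholine response, fitted four-parameter for EC50/Emax. hM4-Gqi5 CHO-K1 cells carried Fluo-4 AM dye; test compounds (11 points, 1:3) preceded EC20 acetylcholine additions at 144 s and 230 s.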

One may read the Emax as the maximal effect, on the per cent scale that the assay sets. For orientation: EC50 means the concentration giving half of the maximal effect. Regarding `Cc1cc(=O)n2nc(N3CCc4ncc(-c5ccc(N(C)C)nc5)cc4C3)c(C)cc2n1` [Compound 1-221, 7-(3-(6-(dimethylamino)pyridin-3-yl)-7,8-dihydro-1,6-naphthyridin-6(5H)-yl)-2,8-dimethyl-4H-pyrimido[1,2-b]pyridazin-4-one], the maximal response (Emax) at 30 µM came to 58% and the EC50 came to 170 nM.
In the same order, the values of `COc1cnccc1-c1cnc2c(c1)CN(c1nn3c(=O)cc(C)nc3c(C)c1C)CC2` [Compound 1-282, 7-(3-(3-methoxypyridin-4-yl)-7,8-dihydro-1,6-naphthyridin-6(5H)-yl)-2,8,9-trimethyl-4H-pyrimido[1,2-b]pyridazin-4-one] are 90% and 481 nM.
On the same counts, the results for `Cc1cc2nccc(=O)n2nc1N1CCc2ncc(Nc3c(F)ccnc3C)cc2C1` [Compound 2-114, 7-(3-((4-fluoro-2-methylpyridin-3-yl)amino)-7,8-dihydro-1,6-naphthyridin-6(5H)-yl)-8-methyl-4H-pyrimido[1,2-b]pyridazin-4-one] are 82% and 165 nM.
As to `Cc1cc2nccc(=O)n2nc1N1CCc2ncc(-c3ccc(C#N)nc3)cc2C1` [Compound 1-316, 5-(6-(8-methyl-4-oxo-4H-pyrimido[1,2-b]pyridazin-7-yl)-5,6,7,8-tetrahydro-1,6-naphthyridin-3-yl)picolinonitrile], the Emax at 30 µM was 71%.
Regarding `Cc1cscc1-c1cnc2c(c1)CN(c1nn3c(=O)ccnc3cc1C)CC2` [Compound 1-394, 8-methyl-7-(3-(4-methylthiophen-3-yl)-7,8-dihydro-1,6-naphthyridin-6(5H)-yl)-4H-pyrimido[1,2-b]pyridazin-4-one], the Emax at 30 µM came to 86% and the concentration for a half-maximal effect (EC50) is 74 nM.
As to `Cc1cc2nc(C(=O)NCc3cncs3)cc(=O)n2nc1N1CCc2ncc(C(F)(F)F)cc2C1` [Compound 1-42, 8-methyl-4-oxo-N-(thiazol-5-ylmethyl)-7-(3-(trifluoromethyl)-7,8-dihydro-1,6-naphthyridin-6(5H)-yl)-4H-pyrimido[1,2-b]pyridazine-2-carboxamide], the Emax at 30 µM was 87% and the EC50 came to 200 nM.
In the same order, the values of `Cc1cc2nccc(=O)n2nc1N1CCc2ncc(-c3cnc(F)c(Cl)c3)cc2C1` [Compound 1-326, 7-(3-(5-chloro-6-fluoropyridin-3-yl)-7,8-dihydro-1,6-naphthyridin-6(5H)-yl)-8-methyl-4H-pyrimido[1,2-b]pyridazin-4-one] are 49% and 1480 nM.
On the same counts, the results for `[2H]C1([2H])Cc2ncc(Nc3ccncc3F)cc2C([2H])([2H])N1c1nn2c(=O)ccnc2cc1C` [Compound 2-164, 7-(3-((3-fluoropyridin-4-yl)amino)-7,8-dihydro-1,6-naphthyridin-6(5H)-yl-5,5,7,7-d4)-8-methyl-4H-pyrimido[1,2-b]pyridazin-4-one] are 94% and 7 nM.
In the same order, the values of `Cc1c(N2CCc3ncc(-c4cccc(F)c4)cc3C2)nn2c(=O)cc(C(F)F)nc2c1C` [Compound 1-306, 2-(difluoromethyl)-7-(3-(3-fluorophenyl)-7,8-dihydro-1,6-naphthyridin-6(5H)-yl)-8,9-dimethyl-4H-pyrimido[1,2-b]pyridazin-4-one] are 89% and 451 nM.
As for `Cc1cc2nccc(=O)n2nc1N1CCc2ncc(Nc3ccc(F)nc3C)cc2C1` [Compound 2-143, 7-(3-((6-fluoro-2-methylpyridin-3-yl)amino)-7,8-dihydro-1,6-naphthyridin-6(5H)-yl)-8-methyl-4H-pyrimido[1,2-b]pyridazin-4-one], the Emax at 30 µM was 82% and the EC50 was 469 nM.
In the same order, the values of `Cc1cc2nccc(=O)n2nc1N1CCc2ncc(-c3cccnn3)cc2C1` [Compound 1-352, 8-methyl-7-(3-(pyridazin-3-yl)-7,8-dihydro-1,6-naphthyridin-6(5H)-yl)-4H-pyrimido[1,2-b]pyridazin-4-one] are 59% and 3310 nM.
Take `Cc1cc(=O)n2nc(N3CCc4ncc(-c5cc(F)c(F)cc5F)cc4C3)c(C)cc2n1` [Compound 1-208, 2,8-dimethyl-7-(3-(2,4,5-trifluorophenyl)-7,8-dihydro-1,6-naphthyridin-6(5H)-yl)-4H-pyrimido[1,2-b]pyridazin-4-one]: the Emax at 30 µM is 86% and the EC50 was 518 nM.
For `Cc1cc2nccc(=O)n2nc1N1CCc2ncc(Nc3cccc(C#N)c3)cc2C1` [Compound 2-80, 3-((6-(8-methyl-4-oxo-4H-pyrimido[1,2-b]pyridazin-7-yl)-5,6,7,8-tetrahydro-1,6-naphthyridin-3-yl)amino)benzonitrile], the Emax at 30 µM turned out to be 97% and the EC50 came to 47 nM.
As for `COCc1cc(=O)n2nc(N3CCc4ncc(-c5cc(F)ccc5C)cc4C3)c(C)cc2n1` [Compound 1-332, 7-(3-(5-fluoro-2-methylphenyl)-7,8-dihydro-1,6-naphthyridin-6(5H)-yl)-2-(methoxymethyl)-8-methyl-4H-pyrimido[1,2-b] pyridazin-4-one], the Emax at 30 µM was found to be 67% and the EC50 was 244 nM.
In the same order, the values of `Cc1c(N2CCc3ncc(N4CCCn5nccc54)cc3C2)nn2c(=O)cc(C(F)F)nc2c1C` [Compound 2-31, 2-(difluoromethyl)-7-(3-(6,7-dihydropyrazolo[1,5-a]pyrimidin-4(5H)-yl)-7,8-dihydro-1,6-naphthyridin-6(5H)-yl)-8,9-dimethyl-4H-pyrimido[1,2-b]pyridazin-4-one] are 91% and 14 nM.
On to `Cc1ccc(-c2cnc3c(c2)CN(c2nn4c(=O)cc(C5CC5)nc4cc2C)CC3)cn1` [Compound 1-79, 2-cyclopropyl-8-methyl-7-(3-(6-methylpyridin-3-yl)-7,8-dihydro-1,6-naphthyridin-6(5H)-yl)-4H-pyrimido[1,2-b]pyridazin-4-one], for which the Emax at 30 µM came to 109% and the EC50 is 66 nM.
In the same order, the values of `CCn1cc(-c2cnc3c(c2)CN(c2nn4c(=O)cc(C(F)F)nc4c(C)c2C)CC3)cn1` [Compound 1-166, 2-(difluoromethyl)-7-(3-(1-ethyl-1H-pyrazol-4-yl)-7,8-dihydro-1,6-naphthyridin-6(5H)-yl)-8,9-dimethyl-4H-pyrimido[1,2-b]pyridazin-4-one] are 86% and 283 nM.
Regarding `Cc1ccncc1Nc1cnc2c(c1)CN(c1nn3c(=O)ccnc3cc1C)CC2` [Compound 2-124, 8-methyl-7-(3-((4-methylpyridin-3-yl)amino)-7,8-dihydro-1,6-naphthyridin-6(5H)-yl)-4H-pyrimido[1,2-b]pyridazin-4-one], the Emax at 30 µM worked out at 87% and the EC50 was found to be 163 nM.
In the same order, the values of `Cc1cc2nccc(=O)n2nc1N1CCc2ncc(N3CCc4ccccc43)cc2C1` [Compound 2-85, 7-(3-(indolin-1-yl)-7,8-dihydro-1,6-naphthyridin-6(5H)-yl)-8-methyl-4H-pyrimido[1,2-b]pyridazin-4-one] are 95% and 22 nM.
For the compound `Cc1cc2nccn2cc1-c1cnc2c(c1)CN(c1nn3c(=O)ccnc3c(C)c1C)CC2` [Compound 1-296, 8,9-dimethyl-7-(3-(7-methylimidazo[1,2-a]pyridin-6-yl)-7,8-dihydro-1,6-naphthyridin-6(5H)-yl)-4H-pyrimido[1,2-b]pyridazin-4-one], the Emax at 30 µM is 62% and the EC50 is 563 nM.
On the same counts, the results for `Cc1cc2nccc(=O)n2nc1N1CCc2ncc(N3c4ccc(F)cc4OCC3C)cc2C1` (centres unmarked) [Compound 2-52, 7-(3-(7-fluoro-3-methyl-2,3-dihydro-4H-benzo[b][1,4]oxazin-4-yl)-7,8-dihydro-1,6-naphthyridin-6(5H)-yl)-8-methyl-4H-pyrimido[1,2-b]pyridazin-4-one] are 89% and 16 nM.
On the same counts, the results for `Cc1cc2nccc(=O)n2nc1N1CCc2ncc(Nc3cccc(OC(F)F)c3)cc2C1` [Compound 2-71, 7-(3-((3-(difluoromethoxy)phenyl)amino)-7,8-dihydro-1,6-naphthyridin-6(5H)-yl)-8-methyl-4H-pyrimido[1,2-b]pyridazin-4-one] are 97% and 82 nM.
As to `Cc1cc(=O)n2nc(N3CCc4ncc(N5CCOC(c6cccnc6)C5)cc4C3)c(C)c(C)c2n1` (centres unmarked) [Compound 2-49, 2,8,9-trimethyl-7-(3-(2-(pyridin-3-yl)morpholino)-7,8-dihydro-1,6-naphthyridin-6(5H)-yl)-4H-pyrimido[1,2-b]pyridazin-4-one], the maximal effect (Emax) at 30 µM turned out to be 75% and the EC50 was determined as 1200 nM.
In the same order, the values of `COc1c(F)cc(-c2cnc3c(c2)CN(c2nn4c(=O)ccnc4cc2C)CC3)c(C)c1F` [Compound 1-444, 7-(3-(3,5-difluoro-4-methoxy-2-methylphenyl)-7,8-dihydro-1,6-naphthyridin-6(5H)-yl)-8-methyl-4H-pyrimido [1,2-b]pyridazin-4-one] are 93% and 131 nM.
